Bridge positions count the residues as written; N and C are the ends. Ends that are not written are not given here. Peptide text beside a SMILES is read from it.
Assays:
hMC4R = biological target: T1, hMC4R (Homo sapiens, UniProt P32245); conditions: cited from earlier work
T1 construct: expressed in transfected cells; host or cells: HEK-293

hMC3R [1] = biological target: T2, hMC3R (Homo sapiens, UniProt P41968); conditions: cited from earlier work
T2 construct: expressed in transfected cells; host or cells: HEK-293
T2 sequence (P41968 whole entry): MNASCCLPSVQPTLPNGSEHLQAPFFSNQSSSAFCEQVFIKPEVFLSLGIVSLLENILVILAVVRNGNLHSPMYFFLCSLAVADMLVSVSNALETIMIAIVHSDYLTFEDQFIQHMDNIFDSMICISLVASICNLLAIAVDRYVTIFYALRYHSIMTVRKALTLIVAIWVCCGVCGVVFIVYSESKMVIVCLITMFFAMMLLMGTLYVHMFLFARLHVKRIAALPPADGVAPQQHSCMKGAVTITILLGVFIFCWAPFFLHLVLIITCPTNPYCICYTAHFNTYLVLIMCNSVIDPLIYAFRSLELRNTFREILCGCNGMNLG

[2] = cooperative folding, Jackson et al., 2002; cited from earlier work
[3] = cited from earlier work; for Feeding response compared with AgRP: literature
male Long-Evans rats = experiment: Feeding and body mass after single third cerebral ventricle (ICV) injection; type: in vivo, rat; conditions: single 1.0 nmol ICV dose; for Initial (24 hour) feeding response, in words: first 24 hours
hMC3R [4] = biological target: T2, hMC3R; conditions: cAMP, NDP-MSH stimulated; data adapted from the literature (footnote c); read-out: EC50, MC3R; cited from earlier work

T1 sequence (P32245 whole entry): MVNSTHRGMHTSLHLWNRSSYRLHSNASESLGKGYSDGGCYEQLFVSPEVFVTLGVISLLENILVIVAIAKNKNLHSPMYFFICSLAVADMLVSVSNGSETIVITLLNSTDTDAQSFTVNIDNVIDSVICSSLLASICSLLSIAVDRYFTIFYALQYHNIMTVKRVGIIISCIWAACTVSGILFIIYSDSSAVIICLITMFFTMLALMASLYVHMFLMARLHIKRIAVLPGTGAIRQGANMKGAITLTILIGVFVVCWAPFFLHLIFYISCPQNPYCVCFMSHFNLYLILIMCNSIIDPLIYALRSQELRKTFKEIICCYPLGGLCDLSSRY

For `CC(=O)N[C@H]1CSSC[C@@H]2NC(=O)[C@@H]3CSSC[C@@H](C(=O)N[C@@H](CCCNC(=N)N)C(N)=O)NC(=O)[C@H](Cc4ccc(O)cc4)NC(=O)[C@@H]4CSSC[C@H](NC(=O)[C@H](Cc5ccc(O)cc5)NC(=O)[C@H](CSSC[C@H](NC(=O)[C@H](CO)NC(=O)[C@H](CCC(=O)O)NC(=O)[C@H](Cc5c[nH]cn5)NC(=O)[C@H](CC(C)C)NC(=O)[C@H](CCCNC(=N)N)NC(=O)[C@H](C(C)C)NC1=O)C(=O)N[C@@H](CC(C)C)C(=O)NCC(=O)N[C@@H](CCC(N)=O)C(=O)N[C@@H](CCC(N)=O)C(=O)N[C@@H](C(C)C)C(=O)N1CCC[C@H]1C(=O)N3)NC(=O)[C@H]([C@@H](C)O)NC(=O)[C@H](C)NC(=O)[C@H](C)NC(=O)[C@@H]1CCCN1C(=O)[C@H](CC(=O)O)NC2=O)C(=O)N[C@@H](CCCNC(=N)N)C(=O)N[C@@H](Cc1ccccc1)C(=O)N[C@@H](Cc1ccccc1)C(=O)N[C@@H](CC(N)=O)C(=O)N[C@@H](C)C(=O)N[C@@H](Cc1ccccc1)C(=O)N4` [AgRP(87-120)] (Ac-CVRLHESCLGQQVPCCDPAATCYCRFFNAFCYCR-NH2; disulfide 1-16, 8-22, 15-33, 24-31 (inferred); C-terminus assumed), the “Dissociation constant at Mc4R compared with mature AgRP(83-132)” value (hMC4R; previous study) is listed as “equivalent to mature AgRP(83-132)”, the “Dissociation constant at Mc3R compared with mature AgRP(83-132)” value (hMC3R [1]; previous study) is listed as “equivalent to mature AgRP(83-132)” and the Folding stability [2] is listed as “indistinguishable from AgRP(83-132)”.

In the case of MTII, the “Feeding after injection following AgRP administration” value ([3]; injected after AgRP) is listed as “transiently reduces feeding”.

In the case of SHU9119, the “Feeding response compared with AgRP” value [3] is given as “long-term response similar to AgRP”.

In the case of “mature wild type human Agouti-Related Protein, SSRR-CVRLHESCLGQQVPCCDPCATCYCRFFNAFCYC-RKLGTAMNPCSRT (SSRRCVRLHESCLGQQVPCCDPCATCYCRFFNAFCYCRKLGTAMNPCSRT; not fully specified (bridges); ends and bridges not checked; listed as Homo sapiens) [AgRP(83-132)]”, the Ki (hMC4R; displacement of 125I-NDP-MSH, data adapted from the literature (footnotes a, d), read-out: Ki, MC4R) is given as 11 ± 0.7 nM, the “Feeding increase over control at three or four days after injection” value (male Long-Evans rats) is given as “about 30%” and the “Initial (24 hour) feeding response, in words” value (male Long-Evans rats) is given as “the most potent”. For the same compound, the “Initial (24 hour) feeding response, in words” value (male Long-Evans rats; listed as AgRP) was “greatly stimulate feeding” and the “Feeding increase over control after one day” value (male Long-Evans rats; first 24 hr) was about 80%.

For neuropeptide Y [neuropeptide Y (NPY)], the “Feeding response compared with AgRP” value [3] is given as “feeding returns to baseline after 24 hours”.

For “truncated AgRP lacking the N-terminal SSRR segment: CVRLHESCLGQQVPCCDPCATCYCRFFNAFCYC-RKLGTAMNPCSRT [AgRP(87-132)]”, the Ki (hMC3R [1]; displacement of 125I-NDP-MSH, data adapted from the literature (footnote a), read-out: Ki, MC3R) is given as 5.2 ± 0.7 nM and the EC50 (hMC3R [4]) is given as 8.9 ± 0.2 nM.
